For the assay, the target named is T1, purified recombinant human islet GK (Homo sapiens, UniProt P35557).
T1 construct: (His)6; made in house; host or cells: E. coli
T1 sequence (P35557 1-465): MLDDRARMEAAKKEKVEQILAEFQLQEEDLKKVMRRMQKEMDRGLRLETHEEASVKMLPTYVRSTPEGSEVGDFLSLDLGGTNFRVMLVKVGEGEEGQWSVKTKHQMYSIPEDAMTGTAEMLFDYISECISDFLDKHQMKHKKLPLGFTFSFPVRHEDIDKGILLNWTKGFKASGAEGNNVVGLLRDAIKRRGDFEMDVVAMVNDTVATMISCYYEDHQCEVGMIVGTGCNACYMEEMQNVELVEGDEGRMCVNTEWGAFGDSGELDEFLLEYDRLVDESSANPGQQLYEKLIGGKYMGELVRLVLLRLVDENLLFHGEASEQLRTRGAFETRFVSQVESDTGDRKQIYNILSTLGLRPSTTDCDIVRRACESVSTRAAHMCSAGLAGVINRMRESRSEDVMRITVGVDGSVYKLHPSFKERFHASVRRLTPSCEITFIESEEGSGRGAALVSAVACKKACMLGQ
In words: Enzymatic coupled glucokinase (GK) assay (NADH production, absorbance at 340 nm). The settings on record: concentration of activator that produced 50% of maximum increase in the activity of GK; at 10 mM glucose. The format is biochemical. From the text: An enzymatic coupled glucokinase (GK) assay using purified recombinant human islet GK was used to evaluate effects of the activators. In this assay, GK catalyzes glucose phosphorylation in the presence of ATP. The product of this reaction, glucose-6-phosphate, is then oxidized by an excess of glucose-6-dehydrogenase to produce gluconate-6-phosphate with concomitant reduction of NAD^+ to NADH (Davidson and Arion, 1987). The following outlines the two reactions involved: • Glucose+ATP→Glucose-6-P+ADP (Glucokinase) • Glucose-6-P+NAD→Gluconate-6-P+NADH (glucose-6-P dehydrogenase)
The NADH production detected by absorbance at 340 nm is used to monitor the enzymatic activity.
The human islet GK isoform was expressed in E. coli as (His)6-tagged fusion protein and purified with metal chelate affinity chromatography (Tiedge et al., 1997). After purification the enzyme was stored in aliquots at concentration 0.8 mg/ml in 25 mM NaH2PO4, 150 mM NaCl, 100 mM imidazole, 1 mM DTT, 50% glycerol at −80° C.
The assay was performed in flat bottom 96-well plates in a final incubation volume of 100 μl. The incubation mixture consisted of 25 mM HEPES (pH7.4), 50 mM KCl, 2.5 mM MgCl2, 2 mM dithiothreitol, 4 U/ml glucose-6-phosphate dehydrogenase from Leuconostoc mesenteroides, 5 mM ATP, 1 mM NAD and 10 mM glucose. All reagents were from Sigma-Aldrich Co. (St. Louis, Mo.). Test compounds were dissolved in DMSO and then added to the reaction mixture giving the final DMSO concentration of 10%.
The reaction was initiated by addition of 20 μl GK and run for 20 min at 37° C. The amount of formed NADH was measured as an increase in absorbance at 340 nm using a microplate reader.
The concentration of activator that produced 50% of maximum increase in the activity of GK (EC50) was calculated.

What is called EC50 is the concentration at which the effect is half-maximal. With `CS(=O)(=O)c1ccc([C@@]2(C(=O)Nc3nccs3)C[C@H]2CC2CCCCC2)cc1` (racemic) [Example 2, (±)-(E)-2-Cyclohexylmethyl-1-(4-methanesulfonyl-phenyl)-cyclopropanecarboxylic acid thiazol-2-ylamide], the EC50 was 1.18 µM.
To `CC(C)C[C@@H]1C[C@]1(C(=O)Nc1nccs1)c1ccc(S(C)(=O)=O)cc1` (racemic) [Example 3, (±)-(E)-2-Isobutyl-1-(4-methanesulfonyl-phenyl)-cyclopropanecarboxylic acid thiazol-2-ylamide] belongs 5.46 µM; to `CCN(CC)CCCS(=O)(=O)c1ccc([C@@]2(C(=O)Nc3nccs3)C[C@H]2C2CCCCC2)cc1` (racemic) [Example 7, (±)-(E)-2-Cyclohexyl-1-[4-(3-diethylamino-propane-1-sulfonyl)-phenyl]-cyclopropanecarboxylic acid thiazol-2-ylamide], 0.7 µM.
To `Cc1nnc(NC(=O)[C@]2(c3ccc(S(C)(=O)=O)cc3)C[C@H]2C2CCCC2)s1` (racemic) [Example 11, (±)-(E)-2-Cyclopentyl-1-(4-methanesulfonyl-phenyl)-cyclopropanecarboxylic acid (5-methyl-[1,3,4]thiadiazol-2-yl)-amide] belongs 9.32 µM; to `Cc1cc(NC(=O)[C@]2(c3ccc(S(C)(=O)=O)cc3)C[C@H]2C2CCCC2)no1` (racemic) [Example 13, (±)-(E)-2-Cyclopentyl-1-(4-methanesulfonyl-phenyl)-cyclopropanecarboxylic acid (5-methyl-isoxazol-3-yl)-amide], 12.7 µM.
To `CS(=O)(=O)c1csc([C@@]2(C(=O)Nc3nccs3)C[C@H]2C2CCCC2)c1` (racemic) [Example 20, (±)-(Z)-2-Cyclopentyl-1-(4-methanesulfonyl-thiophen-2-yl)-cyclopropanecarboxylic acid thiazol-2-ylamide] belongs 1.9 µM; to `CS(=O)(=O)c1cccc([C@@]2(C(=O)Nc3nccs3)C[C@H]2C2CCCCC2)c1` (racemic) [Example 35, (±)-(E)-2-Cyclohexyl-1-(3-methanesulfonyl-phenyl)-cyclopropanecarboxylic acid thiazol-2-ylamide], 7.61 µM.
On to `CS(=O)(=O)c1ccc([C@@]2(C(=O)Nc3nccs3)C[C@H]2C2CCCCC2)cc1C(F)(F)F` (racemic) [Example 45, (±)-(E)-2-Cyclohexyl-1-(4-methanesulfonyl-3-trifluoromethyl-phenyl)-cyclopropanecarboxylic acid thiazol-2-ylamide], for which the EC50 stood at 0.16 µM.
As to `COc1ccc([C@@]2(C(=O)Nc3nccs3)C[C@H]2C2CCCCC2)cc1` (racemic) [Example 48, (±)-(E)-[2-Cyclohexyl-1-(4-methoxy-phenyl)-cyclopropanecarboxylic acid thiazol-2-ylamide]], the EC50 came to 8.69 µM.
To `CNC(=O)c1ccc([C@@]2(C(=O)Nc3nccs3)C[C@H]2C2CCCCC2)cc1` (racemic) [Example 50, (±)-(E)4-[2-Cyclohexyl-1-(thiazol-2-ylcarbamoyl)-cyclopropyl]-N-methyl-benzamide] belongs 7.61 µM.
To `CC(=O)Nc1ccc([C@@]2(C(=O)Nc3nccs3)C[C@H]2C2CCCCC2)cc1` (racemic) [Example 51, (±)-(E)-1-(4-Acetylamino-phenyl)-2-cyclohexyl-cyclopropanecarboxylic acid thiazol-2-ylamide] belongs 10.5 µM; to `CS(=O)(=O)Nc1ccc([C@@]2(C(=O)Nc3nccs3)C[C@H]2C2CCCCC2)cc1` (racemic) [Example 52, (±)-(E)-2-Cyclohexyl-1-(4-methanesulfonylamino-phenyl)-cyclopropanecarboxylic acid thiazol-2-ylamide], 3.82 µM; to `COC(=O)c1ccc([C@@]2(C(=O)Nc3nccs3)C[C@H]2C2CCCC2)cc1` (racemic) [Example 73, (±)-(E)-4-[2-Cyclopentyl-1-(thiazol-2-ylcarbamoyl)-cyclopropyl]-benzoic acid methyl ester], 3.66 µM.
To `Cc1cnc(NC(=O)[C@]2(c3ccc(S(C)(=O)=O)cc3)C[C@H]2C2CCCCC2)s1` (racemic) [Example 77, (±)-(E)-2-Cyclohexyl-1-(4-methanesulfonyl-phenyl)-cyclopropanecarboxylic acid (5-methyl-thiazol-2-yl)-amide] belongs 0.39 µM; to `CS(=O)(=O)c1ccc([C@@]2(C(=O)Nc3nccs3)C[C@H]2C2CCCCC2)cc1` (single isomer, unassigned) [55 (Isomer 1)], 0.15 µM; to `CS(=O)(=O)c1ccc(C2(C(=O)Nc3nccs3)C(C3CCCCC3)C2(F)F)cc1` (single isomer, unassigned) [63 (Isomer 2), (±)-(E)-3-Cyclohexyl-2,2-difluoro-1-(4-methanesulfonyl-phenyl)-cyclopropanecarboxylic acid thiazol-2-ylamide], 5.3 µM.
Take `O=C(Nc1nccs1)[C@]1(c2ccc(S(=O)(=O)NCCc3ccccn3)cc2)C[C@H]1C1CCCC1` (single isomer, unassigned) [Example 26, (E)-2-Cyclopentyl-1-[4-(2-pyridin-2-yl-ethylsulfamoyl)-phenyl]-cyclopropanecarboxylic acid thiazol-2-ylamide]: the EC50 came out at 0.36 µM.

The record behind these values is patent US7576108B2, “Substituted arylcyclopropylacetamides as glucokinase activators” (Eli Lilly and Company, priority 2003, dated 2009).
